Patent US20090156657A1, “ANTI-INFLAMMATORY COMPOSITION” (Ajinomoto Co., Inc., priority 2006, published 2009)

Tests used:
IL-1β mRNA = experiment: IBD model mouse: IL-1β mRNA in large intestine tissue (realtime PCR); format: in vivo; details: IBD model mice, vs Control group, GAPDH internal standard; FIG. 15
Text: At the end of the test described in Example 10, the large intestine (caecum—anus) was cut into about 1 cm pieces from the center to the anus side to give 3 sections in total. One of them was fixed with 10% formalin solution and two were frozen in liquid nitrogen. The large intestine fixed with formalin was embedded in paraffin, and sliced to give transversely sectioned specimens. The specimens were stained by a PAS (Periodic acid Schiff) staining method, and histopathological images were observed. On the other hand, total RNA was extracted from the frozen large intestine tissue with ISOGEN (NIPPON GENE CO., LTD.) Total RNA (2 μg) was subjected to a reverse transcription reaction using a SYBR ExScript™ RT-PCR kit (TaKaRa) and, using this as a template, quantitative realtime PCR was performed using IL-1β, TNF-α and GAPDH. The primers used for the analysis were as follows.
Template DNA (2 μl), SYBR Premix Ex Taq™ (TaKaRa, 10 μl), ROX Reference Dye (0.4 μl), 100 μM forward primer (0.04 μl), 100 μM reverse primer (0.04 μl) and sterile water (7.52 μl) were mixed on ice and, using Applied Biosystems 7900HT Fast realtime PCR system, the mixture was heated at 95° C. for 10 seconds, followed by 40 cycles of 95° C., 5 seconds and 60° C., 34 seconds, whereby the DNA was amplified. Using GAPDH as the internal standard, IL-1β and TNF-α expression levels were evaluated.

U-937 cells / HAEC = experiment: Migration capability of monocyte (U-937), Transwell system with HAEC; format: cell-based, human; details: HAEC pre-incubated 5 or 10 μM 24 h, 25 mM glucose 4 h; FIG. 7
Method: The migration capability of monocyte was measured using the Transwell system (pore size 3 μm; BD Biosciences). HAEC cultured on a transwell placed in a 24 well microplate was pre-incubated with 5 or 10 μM serotonin derivative for 24 hours, and stimulated with 25 mM glucose for 4 hours. 200 μL of U-937 cell suspension (10^6 cells/mL) was added to the transwell and the cells were incubated as-is at 37° C. for 2 hours. The number of cells migrated to the lower chamber of the transwell through the membrane was counted under a microscope (20 fields). The experiment was repeated three times, and the results are shown as an average value thereof. An experiment using fluorescence-labeled U-937 cells was also performed. BCECF-AM-labeled U-937 cells were plated in the upper chamber of the transwell and incubated at 37° C. for 2 hours. The cells migrated to the lower chamber through the membrane were collected in 1 mL of PBS buffer and treated with 1% Triton X for 2 hours. The fluorescence derived from the migrated cells was quantified (Ex. 503 nm, Em. 525 nm) using a fluorescence plate reader (Bio-Rad, Fluoromark).

VCAM-1 = VCAM-1 protein expression on HAEC cell membrane (immunostaining); format: cell-based, human; details: 0.1-10 μM 24 h, 25 mM glucose 4 h, FIG. 4A
Method: (§1) HAEC cells proliferated to confluence in a 96 well microplate were pre-incubated with 0.1-10 μM serotonin derivative for 24 hours, and stimulated with 25 mM glucose for 4 hours. The cell layer was washed with Hanks solution, and then anti-VCAM-1 monoclonal antibody (Becton Dickinson) was added and the cells were incubated at 37° C. for 1 hour. After washing, the cells were incubated with secondary antibody (peroxidase-labeled anti-mouse IgG goat F(ab′)2 fragment; Cappel) for 1 hour. A color development substrate (o-phenylenediamine dihydrochloride) was added and, about 30 minutes later (room temperature), the absorbance (492 nm) of each well was quantified with a microplate reader. The MCP-1 concentration of the medium was quantified with Human MCP-1 Immunoassay Kit (BioSource International).

VCAM-1 mRNA = VCAM-1 mRNA expression in HAEC by real-time PCR; format: cell-based, human; details: 10 μM 24 h, 25 mM glucose 3 h, GAPDH internal standard, FIG. 3A
Method: HAEC cells pre-treated with 10 μM of CS or FS for 24 hours were stimulated with 25 mM glucose for 3 hours, and total RNA was extracted with Isogenkit (NIPPON GENE CO., LTD.). From 1 μg of RNA, cDNA was synthesized using 100 U/mL of reverse transcriptase (TAKARA BIO INC.) and 0.1 μM of oligo (dT)-adapter (TAKARA BIO INC.) (total volume of reaction mixture; 50 μL) (42° C., 40 minutes). Real-time PCR was performed using 7300 Real Time PCR system (Applied Biosystems Japan Ltd.) and the PCR product was detected by SYBER Green I.
PCR reaction composition (RT-PCRkit, TAKARA BIO INC.): 12.5 μL Premix Ex Taq, 2.5 μL SYBER Green I, synthesis primer, ROX reference dye, cDNA (corresponding to 20 ng of total RNA), final reaction volume; 25 μL
Primers having the following sequences were used.
PCR was conducted under the following conditions.
thermal denaturation: at 95° C. for 15 seconds, extension reaction: 40 cycles (3 seconds at 95° C., 31 seconds at 60° C.)
Expression amounts of VCAM-1 and MCP-1 mRNA were calculated using GAPDH as the internal standard.

MCP-1 = MCP-1 secretion into medium of HAEC (immunoassay); format: cell-based, human; details: 0.1-10 μM 24 h, 25 mM glucose 4 h, FIG. 4B
Method: as §1

COc1cc(/C=C/C(=O)NCCc2c[nH]c3ccc(O)cc23)ccc1O [FS, N-feruloyl serotonin]
mRNA expression level of IL-1β in large intestine tissue (IL-1β mRNA): significant decrease | number of U-937 cells migrated into subendothelium space (cell count) (U-937 cells / HAEC): significantly decreased | VCAM-1 expression on the cell membrane (VCAM-1): suppressed the induction of their expressions in a dose-dependent manner | expression amount of VCAM-1 mRNA (VCAM-1 mRNA): significantly suppressed the increase | MCP-1 secretion into the medium (MCP-1): suppressed the induction of their expressions in a dose-dependent manner
